{"source": "patent US20230348376A1", "about": "(TEIJIN PHARMA LIMITED, priority 2020, published 2023)", "key": {"[1]": {"assay": "Evaluation of brain penetration in mice (blood and brain concentration at brain Cmax)", "assay_type": "in vivo, mouse", "settings": "C57BL/6J mice; for Kp: male, C57BL/6J, mouse, brain/plasma, po", "summary_of_the_method": "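Male C57BL/6J mice (8 weeks, n=3) dosed orally once at 1 […] mg/kg; plasma and brain collected at 0.25, 0.5, 1, 2, 4 and 8 h. Compound extracted with acetonitrile from brain homogenate and plasma, quantified by LC/MS/MS.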"}, "[2]": {"test_system": "rat oligodendrocyte progenitor cells", "assay": "Promotive activity of rat oligodendrocyte progenitor cell differentiation-2 (immunostaining of MBP)", "assay_type": "cell-based", "settings": "vitamin D derivative 2 μM, T3 30 nM, 4 days", "summary_of_the_method": "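Rat OPCs prepared by shaking in separation medium about 22 h at 37 °C, 200 rpm, and collecting the supernatant.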"}, "mouse cuprizone model": {"test_system": "mouse cuprizone model", "assay": "Myelin regeneration promoting action in mouse cuprizone model (LFB staining of corpus callosum)", "assay_type": "in vivo", "settings": "4 weeks after 6 weeks cuprizone diet, untreated = 100%", "source_text": "C57BL/6J mice (8 weeks old, male) were fed a diet containing 0.3% cuprizone (bis(cyclohexanone)oxaldihydrazone) (Research Diets, Inc. #D17042709) for 6 weeks to induce demyelination. Subsequently, the mice were divided into groups of 8 mice based on the body weight, the diet was switched to a cuprizone-free diet (Research Diets, Inc. #D10001), and administration of the test compound or vehicle was started. […] After administration of 4 weeks, the mice were euthanized, perfused with a 4% paraformaldehyde solution, and then brain sampling was performed. The brain sample obtained was embedded in paraffin to prepare a coronal section specimen at Bregma+1. The specimen was stained with Luxor Fast Blue (LFB) to visualize the myelin sheath, and images were acquired using a fluorescence microscope (KEYENCE #BZ-X710). The corpus callosum area and the LFB staining positive area in the corpus callosum of the obtained pathological specimen image were measured using an image analysis application (KEYENCE #BZ-H3C/BZ-H3XD), and the ratio (LFB staining positive area in the corpus callosum/corpus callosum area) was calculated. The intact group is a non-pathogenic group, and the […] control group were sampled after feeding the diet containing 0.3% cuprizone for 6 weeks.\nIn the table, the ratio of LFB staining positive area in the corpus callosum/corpus callosum area of the untreated group, fed with the cuprizone-free diet for 6 weeks, was regarded as 100%. As a result, the control group, fed with the cuprizone-containing diet for 6 weeks, decreased the ratio to 23.6%, and was confirmed to progress demyelination. The group, in which the cuprizone-containing diet was fed for 6 weeks and switched to the cuprizone-free diet, and the vehicle was administered, improved the ratio of area of LFB staining positive/area of corpus callosum to 50.1%. […] In addition, GSK239512 described in WO2013/107336 pamphlet was evaluated in the test to show the ratio of LFB staining positive area/corpus callosum area of 45.8%, in which no demyelination regeneration promoting action was shown as compared with the vehicle-administered group."}, "[3]": {"assay": "Evaluation of calcium increasing action in normal mice (serum calcium)", "assay_type": "in vivo, mouse", "settings": "for Serum calcium concentration: repeated oral once a day, 2 weeks, C57BL/6J mice; for Calcium concentration Fluctuation range: vs vehicle 8.9 mg/dL", "procedure": "After acclimatizing C57BL/6J mice (7 weeks old, male) for 1 week, the mice were divided into groups of 5 mice based on the body weight, and administration of the compound or vehicle was started. The administration solution used was a compound (in ethanol) or ethanol diluted 100-fold with 0.1% Trion X-100 (SIGMA #X100-100ML)/saline, and the repeated oral administration at once a day was performed. After administration of 2 weeks, euthanasia was performed by collecting all blood under general anesthesia."}, "[4]": {"test_system": "oligodendrocyte progenitor cells derived from VDR knockout mice", "assay": "Oligodendrocyte progenitor cell differentiation using VDR knockout mice (MBP immunostaining)", "assay_type": "cell-based", "settings": "1000 nM, 4 days, VDR KO mouse OPC", "method": "The promotive activity of oligodendrocyte progenitor cell (OPC) differentiation of the vitamin D derivatives was evaluated by using oligodendrocyte progenitor cells derived from VDR knockout mice. (1) Collection of Neural Stem Cells from VDR KO Mouse […]\nThe oligodendrocyte progenitor cells derived from VDR KO mouse prepared were suspended in oligodendrocyte progenitor cell differentiation medium (2% B27 (Thermo Fisher Scientific #17504-044)/1% penicillin-streptomycin (Invitrogen #15140-122)/10 ng/mL CNTF (PeproTech #AF-450-13)/DMEM/F-12, no glutamine (Gibco #21331-020)), and were seeded on a 96-well plate coated with poly-L-ornithine (FUJIFILM Wako Pure Chemical Corporation #163-27421) under the condition of 2.0×10^4 cells/well. […] Subsequently, images of each well were acquired using a fluorescence microscope (KEYENCE CORPORATION #BZ-X800), the number of MBP-positive cells and Hoechst 33342-positive cells (total cells) were measured using an image analysis application (KEYENCE CORPORATION #BZ-X800 Analyzer), and then the ratio of number of MBP-positive cells/number of Hoechst33342-positive cells (total cells) was calculated, and then the ratio of those to the DMSO group was calculated as a result. […]"}, "[5]": {"test_system": "rat oligodendrocyte progenitor cells", "assay": "Promotive activity of rat oligodendrocyte progenitor cell differentiation-1 (MBP gene expression, mRNA)", "assay_type": "cell-based", "settings": "4 days", "summary_of_the_method": "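Primary OPCs from 1-day-old SD rat forebrain, isolated by shaking off mixed glial cultures and seeded at 2×10^3 cells/well in B27/CNTF (10 ng/mL) differentiation medium with compound. MBP mRNA measured by one-step TaqMan real-time PCR and expressed as MBP/β-actin ratio.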"}, "[6]": {"settings": "0.2 mg/kg single oral dose, n=3"}}, "note": "Like-named read-outs stand apart in the source and are kept apart here."}
{"smiles": "C[C@H](CN1CC[C@@H](C(C)(F)F)C1)[C@H]1CC[C@H]2/C(=C/C=C3C[C@@H](O)C[C@H](O)C3)CCC[C@]12C", "note": "[Compound B034, (1R,3R)-5-(2-((1R,3aS,7aR,E)-1-((S)-1-((R)-3-(1,1-difluoroethyl)pyrrolidin-1-yl)propan-2-yl)-7a-methyloctahydro-4H-inden-4-ylidene)ethylidene)cyclohexane-1,3-diol]", "values": [{"measurement": "Concentration in blood (mean ± SD) at brain Cmax", "setting": "[1]; 1 mg/kg single oral dose, n=3", "result": "251 ± 9", "unit": "nM"}, {"measurement": "Concentration in brain (mean ± SD) at brain Cmax", "setting": "[1]; 1 mg/kg single oral dose, n=3", "result": "562 ± 50", "unit": "pmol/g"}, {"measurement": "Kp", "setting": "[1]; 1 mg/kg, 1 mg/kg single oral dose, read-out: Concentration in brain/in blood ratio at brain Cmax", "result": 2.24}, {"measurement": "Mean (number of MBP-positive cells/number of Hoechst33342-positive cells)", "setting": "[2]; Test 1", "result": 0.57}, {"measurement": "Ratio (%): area of LFB staining positive/area of corpus callosum, mean", "setting": "mouse cuprizone model; 6 μg/kg oral once a day", "result": 88.1, "unit": "%"}]}
{"smiles": "C[C@H](CN1CCOC[C@H]1C)[C@H]1CC[C@H]2/C(=C/C=C3C[C@@H](O)C[C@H](O)C3)CCC[C@]12C", "note": "[Compound G005, (1R,3R)-5-(2-((1R,3aS,7aR,E)-7a-methyl-1-((S)-1-((R)-3-methylmorpholino)propan-2-yl)octahydro-4H-inden-4-ylidene)ethylidene)cyclohexane-1,3-diol]", "values": [{"measurement": "Concentration in blood at brain Cmax", "setting": "[1]; [6]", "result": "84.1 ± 9.7", "unit": "nM"}, {"measurement": "Concentration in brain at brain Cmax", "setting": "[1]; [6]", "result": "140.8 ± 17.6", "unit": "pmol/g"}, {"measurement": "Kp", "setting": "[1]; 0.2 mg/kg, 0.2 mg/kg single oral dose, read-out: Concentration ratio in brain/in blood at brain Cmax", "result": 1.67}, {"measurement": "Mean (number of MBP-positive cells/number of Hoechst33342-positive cells)", "setting": "[2]; Test 3", "result": 0.34}, {"measurement": "Serum calcium concentration", "setting": "[3]; 20 μg/kg", "result": 9.1, "unit": "mg/dL"}, {"measurement": "Calcium concentration Fluctuation range", "setting": "[3]; 20 μg/kg", "result": 0.2, "unit": "mg/dL"}, {"measurement": "Serum calcium concentration", "setting": "[3]; 60 μg/kg", "result": 9.1, "unit": "mg/dL"}, {"measurement": "Calcium concentration Fluctuation range", "setting": "[3]; 60 μg/kg", "result": 0.2, "unit": "mg/dL"}, {"measurement": "Serum calcium concentration", "setting": "[3]; 200 μg/kg", "result": 9.0, "unit": "mg/dL"}, {"measurement": "Calcium concentration Fluctuation range", "setting": "[3]; 200 μg/kg", "result": 0.1, "unit": "mg/dL"}, {"measurement": "Mean (ratio MBP-positive cells/Hoechst33342-positive cells, relative to the DMSO group = 100.0)", "setting": "[4]", "result": 215.1}]}
{"smiles": "O=C1CCCN1c1ccc(Oc2ccc3c(c2)CCN(C2CCC2)CC3)nc1", "note": "[GSK239512, reference compound]", "values": [{"measurement": "enhancement in the MBP gene expression compared with the wells added with DMSO", "setting": "[5]; 1 μM", "result": 1.8, "unit": "times"}, {"measurement": "activation at 1 µM", "setting": "[5]; Rattus norvegicus, Oligodendrocyte progenitor cell, 96 h, read-out: promotive activity at T3 base (MBP gene expression; DMSO 0%, T3 100%), MBP/β actin mRNA", "result": 18, "unit": "%"}, {"measurement": "Ratio (%): area of LFB staining positive/area of corpus callosum, mean", "setting": "mouse cuprizone model; 10 mg/kg oral once a day", "result": 45.8, "unit": "%"}]}
